Source: ChEMBL document CHEMBL5678795 (Eur J Pharmacol, 1999)
Active and inactive are the calls of the source. The rule behind the calls is not given here.

Experiments:
[1] = molecular target: Adenosine receptor A2a (Homo sapiens) (UniProt P29274); assay: Displacement of [3H]CGS 21680 from human recombinant Adenosine A2A receptor at 10 uM incubated for 120 mins by radiometric based scintillation counter assay relative to control
[2] = molecular target: T1, Endothelin receptor type B (Homo sapiens, UniProt P24530); assay: Displacement of [125I]endhothelin-3 from human ETB receptor stably expressed in CHO cells Membrane assessed as inhibition constant at 25 degC incubated for 4 hrs by saturation binding assay; type: cell membranes
T1 sequence (P24530 whole entry): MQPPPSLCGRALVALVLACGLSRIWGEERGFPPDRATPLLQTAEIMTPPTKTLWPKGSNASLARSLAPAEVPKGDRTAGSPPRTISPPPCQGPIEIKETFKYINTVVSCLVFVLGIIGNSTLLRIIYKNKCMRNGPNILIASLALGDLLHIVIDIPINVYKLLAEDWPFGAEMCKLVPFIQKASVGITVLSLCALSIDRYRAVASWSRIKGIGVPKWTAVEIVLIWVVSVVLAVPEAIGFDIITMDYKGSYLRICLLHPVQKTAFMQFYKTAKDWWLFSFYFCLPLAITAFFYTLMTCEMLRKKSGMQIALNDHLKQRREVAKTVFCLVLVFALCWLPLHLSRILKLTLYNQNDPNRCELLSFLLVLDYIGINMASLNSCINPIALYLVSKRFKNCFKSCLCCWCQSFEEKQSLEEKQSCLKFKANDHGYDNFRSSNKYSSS

[3] = molecular target: T1, Endothelin receptor type B; assay: Displacement of [125I]endhothelin-3 from human ETB receptor stably expressed in CHO cells Membrane at 25 degC incubated for 3 hrs by radioligand competition binding assay; type: cell membranes
[4] = molecular target: Vasoactive intestinal polypeptide receptor 1 (Homo sapiens) (UniProt P32241); assay: Displacement of [125I]VIP from human recombinant Vasoactive intestinal peptide receptor at 10 uM incubated for 60 mins by radiometric based scintillation counter assay relative to control
[5] = molecular target: Muscarinic acetylcholine receptor M4 (Homo sapiens) (UniProt P08173); assay: Displacement of [3H]4-DAMP from human recombinant muscarinic M4 receptor at 10 uM incubated for 60 mins by radiometric based scintillation counter assay relative to control
[6] = molecular target: T2, Endothelin-1 receptor (Rattus norvegicus) (UniProt P26684); assay: Antagonist activity to ETA receptor in endothelin-1 stimulated Sprague-Dawley rat aorta assessed as induction of vessel ring contraction upto 10 uM preincubated for 15 mins; type: functional, tissue-based
T2 sequence (whole entry): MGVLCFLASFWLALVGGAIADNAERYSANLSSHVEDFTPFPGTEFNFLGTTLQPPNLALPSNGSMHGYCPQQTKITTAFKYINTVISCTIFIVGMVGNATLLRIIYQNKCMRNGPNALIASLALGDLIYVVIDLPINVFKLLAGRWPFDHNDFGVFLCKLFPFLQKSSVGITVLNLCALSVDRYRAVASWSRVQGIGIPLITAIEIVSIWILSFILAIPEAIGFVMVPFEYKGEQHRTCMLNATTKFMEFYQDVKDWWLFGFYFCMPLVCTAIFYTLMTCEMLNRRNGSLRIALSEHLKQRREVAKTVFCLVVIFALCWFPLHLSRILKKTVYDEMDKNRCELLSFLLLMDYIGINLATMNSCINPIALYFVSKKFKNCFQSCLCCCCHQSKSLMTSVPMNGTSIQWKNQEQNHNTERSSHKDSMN

[7] = molecular target: Histamine H2 receptor (Homo sapiens) (UniProt P25021); assay: Displacement of [125I]APT from human recombinant histamine H2 receptor at 10 uM incubated for 120 mins by radiometric based scintillation counter assay relative to control
Homo sapiens [8] = species: Homo sapiens; assay: Displacement of [3H]BRL 43694 from human recombinant 5-Hydroxytryptamine 3 at 10 uM incubated for 120 mins by radiometric based scintillation counter assay relative to control
Homo sapiens [9] = species: Homo sapiens; assay: Displacement of [125I]hCGRPalpha from calcitonin gene-related peptide (unknown origin) at 10 uM incubated for 90 mins by radiometric based scintillation counter assay relative to control
[10] = molecular target: Muscarinic acetylcholine receptor M2 (Homo sapiens) (UniProt P08172); assay: Displacement of [3H]AF-DX 384 from human recombinant muscarinic M2 receptor at 10 uM incubated for 60 mins by radiometric based scintillation counter assay relative to control
Mus musculus = species: Mus musculus; assay: Displacement of [125I]PDGF BB from mouse platlet-derived growth factor receptor at 10 uM incubated for 180 mins by radiometric based scintillation counter assay relative to control
[11] = molecular target: Cholecystokinin receptor type A (Homo sapiens) (UniProt P32238); assay: Displacement of [125I]CCK-8s from human recombinant cholecystokinin A receptor at 10 uM incubated for 60 mins by radiometric based scintillation counter assay relative to control
[12] = molecular target: Adrenergic receptor alpha-1 (Rattus norvegicus) (UniProt P15823+P23944+P43140); assay: Displacement of [3H]prazosin from rat brain alpha1-adrenoceptor at 10 uM incubated for 60 mins by radiometric based scintillation counter assay relative to control; type: tissue-based
Homo sapiens [13] = species: Homo sapiens; assay: Displacement of [3H] PK 11195 from central-type benzodiazepine (unknown origin) at 10 uM incubated for 15 mins by radiometric based scintillation counter assay relative to control
[14] = Plasma clearance in Sprague-Dawley rat at 5 mg/kg, iv administered for 12 hrs by reverse phase HPLC-UV analysis; type: ADME, organism-based
[15] = molecular target: D(2) dopamine receptor (Homo sapiens) (UniProt P14416); assay: Displacement of [3H]methyl-spiperone from human recombinant dopamine D2 receptor at 10 uM incubated for 60 mins by radiometric based scintillation counter assay relative to control
Endothelin-1 receptor = molecular target: T3, Endothelin-1 receptor (Homo sapiens, UniProt P25101); assay: Displacement of [125I]endhothelin-1 from human ETA receptor stably expressed in CHO cells Membrane at 25 degC incubated for 3 hrs by radioligand competition binding assay; type: cell membranes
T3 sequence (P25101 whole entry): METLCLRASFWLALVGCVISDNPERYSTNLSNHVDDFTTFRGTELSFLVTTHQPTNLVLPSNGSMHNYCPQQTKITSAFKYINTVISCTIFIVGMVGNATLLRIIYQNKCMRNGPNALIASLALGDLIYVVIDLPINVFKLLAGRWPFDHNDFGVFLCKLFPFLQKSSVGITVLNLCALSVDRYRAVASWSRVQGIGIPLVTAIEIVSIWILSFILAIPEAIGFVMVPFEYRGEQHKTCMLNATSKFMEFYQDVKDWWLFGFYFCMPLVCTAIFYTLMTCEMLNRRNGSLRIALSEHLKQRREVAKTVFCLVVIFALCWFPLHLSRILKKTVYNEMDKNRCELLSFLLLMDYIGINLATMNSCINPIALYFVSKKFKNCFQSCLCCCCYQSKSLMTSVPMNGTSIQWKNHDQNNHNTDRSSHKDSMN

Homo sapiens [16] = species: Homo sapiens; assay: Inhibition of Thromboxane A2 receptor/prostaglandin H2 receptor (unknown origin) at 10 uM by radioligand binding assay relative to control
[17] = Cmax in Beagle dog at 5 mg/kg, po administered for 12 hrs by HPLC analysis; type: ADME, organism-based, Canis lupus familiaris; conditions: in vivo
Homo sapiens [18] = species: Homo sapiens; assay: Displacement of [3H]Dofetilide from human recombinant voltage-dependent K+ channel at 10 uM incubated for 60 mins by radiometric based scintillation counter assay relative to control

Chain of Vasoactive intestinal polypeptide receptor 1 (Homo sapiens) (P32241 whole entry): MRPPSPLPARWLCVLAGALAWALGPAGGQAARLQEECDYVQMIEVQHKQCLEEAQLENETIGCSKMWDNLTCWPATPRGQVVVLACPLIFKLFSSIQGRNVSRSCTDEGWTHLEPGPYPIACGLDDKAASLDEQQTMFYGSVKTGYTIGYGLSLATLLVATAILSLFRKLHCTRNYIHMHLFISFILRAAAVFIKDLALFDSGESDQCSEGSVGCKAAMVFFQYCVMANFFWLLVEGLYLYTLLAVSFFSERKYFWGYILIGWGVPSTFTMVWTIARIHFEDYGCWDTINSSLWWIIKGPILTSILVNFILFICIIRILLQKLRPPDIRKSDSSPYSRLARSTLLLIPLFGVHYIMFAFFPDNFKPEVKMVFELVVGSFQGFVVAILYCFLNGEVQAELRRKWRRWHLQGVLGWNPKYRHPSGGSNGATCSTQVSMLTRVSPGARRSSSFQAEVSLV
Chain of Muscarinic acetylcholine receptor M4 (Homo sapiens) (P08173 whole entry): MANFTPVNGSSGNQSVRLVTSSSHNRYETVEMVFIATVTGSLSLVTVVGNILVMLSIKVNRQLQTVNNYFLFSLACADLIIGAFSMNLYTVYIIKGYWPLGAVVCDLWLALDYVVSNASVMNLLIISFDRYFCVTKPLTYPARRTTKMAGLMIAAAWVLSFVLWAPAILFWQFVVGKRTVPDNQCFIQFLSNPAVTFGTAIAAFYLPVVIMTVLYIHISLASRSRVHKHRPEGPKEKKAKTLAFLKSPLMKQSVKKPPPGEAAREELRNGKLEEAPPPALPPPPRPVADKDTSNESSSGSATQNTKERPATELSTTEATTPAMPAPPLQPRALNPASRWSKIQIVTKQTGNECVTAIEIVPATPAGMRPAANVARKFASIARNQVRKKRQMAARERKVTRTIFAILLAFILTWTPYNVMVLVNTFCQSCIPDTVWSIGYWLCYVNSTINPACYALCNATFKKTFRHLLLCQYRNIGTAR
Chain of D(2) dopamine receptor (Homo sapiens) (P14416 whole entry): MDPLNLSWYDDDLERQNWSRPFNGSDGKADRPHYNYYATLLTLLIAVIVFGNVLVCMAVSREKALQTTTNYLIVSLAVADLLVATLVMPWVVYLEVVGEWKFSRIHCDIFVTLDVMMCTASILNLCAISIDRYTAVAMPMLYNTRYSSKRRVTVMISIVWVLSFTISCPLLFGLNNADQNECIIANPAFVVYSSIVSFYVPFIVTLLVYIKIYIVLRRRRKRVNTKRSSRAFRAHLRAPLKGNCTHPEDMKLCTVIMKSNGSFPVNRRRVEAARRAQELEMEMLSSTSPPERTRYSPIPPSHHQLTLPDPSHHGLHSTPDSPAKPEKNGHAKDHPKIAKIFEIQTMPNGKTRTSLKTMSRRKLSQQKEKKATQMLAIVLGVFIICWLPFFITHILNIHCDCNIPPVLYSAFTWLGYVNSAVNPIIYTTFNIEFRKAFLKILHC
Chain of Cholecystokinin receptor type A (Homo sapiens) (P32238 whole entry): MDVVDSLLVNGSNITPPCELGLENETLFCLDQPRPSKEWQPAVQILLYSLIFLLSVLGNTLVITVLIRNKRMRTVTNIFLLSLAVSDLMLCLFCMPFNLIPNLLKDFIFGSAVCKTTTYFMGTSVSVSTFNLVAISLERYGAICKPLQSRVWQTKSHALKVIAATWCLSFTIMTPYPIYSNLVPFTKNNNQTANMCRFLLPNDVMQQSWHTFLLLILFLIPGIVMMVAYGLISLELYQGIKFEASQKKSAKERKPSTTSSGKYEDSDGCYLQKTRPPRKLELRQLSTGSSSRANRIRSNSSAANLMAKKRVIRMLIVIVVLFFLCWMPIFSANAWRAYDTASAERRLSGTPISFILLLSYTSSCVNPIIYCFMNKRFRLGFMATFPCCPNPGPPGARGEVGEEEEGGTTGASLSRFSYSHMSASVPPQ
Chain of Histamine H2 receptor (Homo sapiens) (P25021 whole entry): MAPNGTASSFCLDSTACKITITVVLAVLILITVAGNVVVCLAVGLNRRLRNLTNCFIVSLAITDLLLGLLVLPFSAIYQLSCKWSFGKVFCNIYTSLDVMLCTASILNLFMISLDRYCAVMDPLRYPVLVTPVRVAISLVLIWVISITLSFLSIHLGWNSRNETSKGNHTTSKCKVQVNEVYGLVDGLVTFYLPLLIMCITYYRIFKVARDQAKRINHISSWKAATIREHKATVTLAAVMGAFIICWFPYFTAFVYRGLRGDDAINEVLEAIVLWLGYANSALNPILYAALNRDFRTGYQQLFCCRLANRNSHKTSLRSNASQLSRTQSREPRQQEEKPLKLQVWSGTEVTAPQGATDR
Chain of Adenosine receptor A2a (Homo sapiens) (P29274 whole entry): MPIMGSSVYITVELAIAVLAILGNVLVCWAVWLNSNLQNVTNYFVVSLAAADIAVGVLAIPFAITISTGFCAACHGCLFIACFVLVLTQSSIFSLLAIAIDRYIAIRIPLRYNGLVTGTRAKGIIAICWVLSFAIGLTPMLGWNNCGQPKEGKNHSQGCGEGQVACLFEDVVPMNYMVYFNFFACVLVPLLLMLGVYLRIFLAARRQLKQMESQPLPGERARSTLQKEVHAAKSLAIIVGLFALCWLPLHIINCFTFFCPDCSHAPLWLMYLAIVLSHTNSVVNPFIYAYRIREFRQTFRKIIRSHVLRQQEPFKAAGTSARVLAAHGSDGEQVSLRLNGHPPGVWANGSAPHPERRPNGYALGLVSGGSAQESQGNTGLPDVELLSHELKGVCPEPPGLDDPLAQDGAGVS
Chain of Muscarinic acetylcholine receptor M2 (Homo sapiens) (P08172 whole entry): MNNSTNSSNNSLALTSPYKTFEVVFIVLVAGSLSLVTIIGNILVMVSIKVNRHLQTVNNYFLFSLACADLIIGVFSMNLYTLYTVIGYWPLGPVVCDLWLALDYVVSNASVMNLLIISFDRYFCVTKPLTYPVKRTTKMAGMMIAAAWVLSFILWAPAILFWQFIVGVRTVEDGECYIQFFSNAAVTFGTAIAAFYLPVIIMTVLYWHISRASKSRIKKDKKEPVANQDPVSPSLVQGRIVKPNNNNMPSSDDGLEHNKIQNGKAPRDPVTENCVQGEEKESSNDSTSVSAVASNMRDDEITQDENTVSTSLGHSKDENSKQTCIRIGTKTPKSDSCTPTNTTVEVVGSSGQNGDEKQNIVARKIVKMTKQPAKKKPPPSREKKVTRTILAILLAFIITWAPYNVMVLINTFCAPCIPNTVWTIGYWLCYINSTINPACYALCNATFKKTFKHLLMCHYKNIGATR

## CCCCN(CCCC)C(=O)CN1[C@H](c2cc(OC)c3c(c2)OCO3)C[C@@H](C(=O)O)[C@@H]1CC(C)(C)CCC
[1]
  inhibition: < 10%
[2]
  Ki: 13 µM
[3]
  IC50: 15.4 µM
[4]
  inhibition: < 10%
[5]
  inhibition: < 10%
[6]
  Activity: inactive
[7]
  inhibition: < 10%
Homo sapiens [8]
  inhibition: < 10%
Homo sapiens [9]
  inhibition: < 10%
[10]
  inhibition: < 10%
Mus musculus
  inhibition: < 10%
[11]
  inhibition: < 10%
[12]
  inhibition: < 10%
Homo sapiens [13]
  inhibition: < 10%
[14]
  clearance: 25 mL/min/kg
[15]
  inhibition: < 10%
Endothelin-1 receptor
  IC50: 0.00049 µM
Homo sapiens [16]
  inhibition: 16%
[17]
  Cmax: 1970 ng/mL
Homo sapiens [18]
  inhibition: < 10%
